Laboratory results: patent US20240189279A1, “IMMUNOMODULATORY COMPOSITIONS AND METHODS OF USE THEREOF” (THE TEXAS A&M UNIVERSITY SYSTEM, priority 2022, published 2024)

How the values were obtained:
[1] = test system: TNFα and IL-1β expression in RAW 264.7 macrophages; test: TNFα and IL-1β expression (qRT-PCR) in RAW 264.7 macrophages, palmitate and LPS two-hit model; format: cell-based, murine
[2] = test system: colitis and fungal infection; conditions: administration of indole-3-aldehyde; cited from earlier work
[3] = target: T1, AhR (Homo sapiens, UniProt P35869); test: Cell-based AhR reporter assays; conditions: extent comparable to other endogenous Trp-derived ligands (e.g., kynurenine)
T1 sequence (P35869 11-848): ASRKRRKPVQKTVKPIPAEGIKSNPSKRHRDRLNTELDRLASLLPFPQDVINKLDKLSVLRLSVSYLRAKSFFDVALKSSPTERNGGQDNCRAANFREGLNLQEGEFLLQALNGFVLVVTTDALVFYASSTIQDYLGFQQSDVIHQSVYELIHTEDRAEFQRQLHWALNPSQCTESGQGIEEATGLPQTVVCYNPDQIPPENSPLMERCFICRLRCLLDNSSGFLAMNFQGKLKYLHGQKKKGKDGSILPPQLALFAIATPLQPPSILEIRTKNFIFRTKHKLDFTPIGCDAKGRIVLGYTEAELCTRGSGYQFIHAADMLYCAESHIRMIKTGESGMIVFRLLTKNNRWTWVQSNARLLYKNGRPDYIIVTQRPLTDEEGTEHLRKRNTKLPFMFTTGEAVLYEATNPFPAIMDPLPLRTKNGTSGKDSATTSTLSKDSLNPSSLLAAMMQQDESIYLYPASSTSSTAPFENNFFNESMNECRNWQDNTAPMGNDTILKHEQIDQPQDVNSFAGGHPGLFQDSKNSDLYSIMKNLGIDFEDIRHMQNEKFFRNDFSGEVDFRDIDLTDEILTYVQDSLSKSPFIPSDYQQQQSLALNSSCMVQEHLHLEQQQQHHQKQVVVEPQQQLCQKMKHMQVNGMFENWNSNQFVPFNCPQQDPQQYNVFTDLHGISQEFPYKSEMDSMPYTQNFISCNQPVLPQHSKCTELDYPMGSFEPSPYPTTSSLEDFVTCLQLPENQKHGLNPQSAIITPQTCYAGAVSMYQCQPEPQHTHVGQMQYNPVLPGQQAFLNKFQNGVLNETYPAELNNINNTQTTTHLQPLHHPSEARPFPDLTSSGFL

[4] = test system: endotoxin-treated murine bone marrow derived macrophages; test: Cytokine expression in endotoxin-treated bone marrow derived macrophages; format: cell-based
[5] = test system: palmitate and LPS stimulated macrophages; test: Cytokine production in palmitate and LPS stimulated macrophages; format: cell-based
[6] = test system: NSAID enteropathy; conditions: indole administration; cited from earlier work
[7] = RAW 264.7, 1 mM AICAR 4 h, 300 μM palmitate 18 h, 10 ng/ml LPS 6 h

## Cc1ccccc1N=Nc1ccc(NC(=O)c2ccnn2C)c(C)c1 [CH223191]
[1]; RAW 264.7, CH223191 5 μM added 10 min before 1 mM I3A
  effect of AhR inhibitor on I3A's reduction of palmitate and LPS induced TNFα and IL-β expression: did not alter I3A's effect

## O=Cc1c[nH]c2ccccc12 [indole-3-aldehyde]
[2]
  IL-22 production from natural killer (NK) cells: induced IL-22 production from natural killer (NK) cells
  mucosal inflammation: protected against mucosal inflammation

## NC(=O)c1ncn([C@@H]2O[C@H](COP(=O)(O)O)[C@@H](O)[C@H]2O)c1N [AICAR, 5-aminoimidazole-4-carboxamide ribonucleotide]
[1]; [7]
  attenuation of palmitate and LPS stimulated increase in IL-1β expression: 80%
  attenuation of palmitate and LPS stimulated increase in TNFα expression: 30%

## NCCc1c[nH]c2ccccc12 [TA, tryptamine]
[3]
  AhR activation: dose-dependently activate the AhR
[4]
  expression of IL-1, TNF-α, and MCP-1: dose-dependently downregulate the expression of IL-1, TNF-α, and MCP-1
[5]
  production of TNF-α, IL-1β, and MCP-1: dose-dependently attenuated the production of TNF-α, IL-1β, and MCP-1

## c1ccc2[nH]ccc2c1 [indole]
[6]
  mucosal inflammation and injury: decreased mucosal inflammation and injury
